Measured values from patent US12168664B2, “Triazolopyrimidines, their preparation and use” (THE TRUSTEES OF COLUMBIA UNIVERSITY IN THE CITY OF NEW YORK, priority 2018, dated 2024).

How the values were obtained:
human RBP4 = human RBP4 (Homo sapiens (Human), UniProt P02753); test: SPA binding assay for RBP4 (scintillation proximity, 3H-retinol displacement); details: 10 nM 3H-retinol, 50 nM biotinylated RBP4
Protocol: Scintillation Proximity RBP4 Binding Assay
Untagged human RBP4 purified from the urine of tubular proteinuria patients was purchased from Fitzgerald Industries International. It was biotinylated using the EZ-Link Sulfo-NHS-LC-Biotinylation kit from Pierce following the manufacturer's recommendations. […] Nonspecific binding was determined in the presence of 20 μM of unlabeled retinol. The reaction mix was assembled in the dark under dim red light. The plates were sealed with clear tape (TopSeal-A: 96-well microplate, PerkinElmer), wrapped in the aluminum foil, and allowed to equilibrate 6 hours at room temperature followed by overnight incubation at +4° C. Radiocounts were measured using a TopCount NXT counter (Packard Instrument Company).
The compounds listed below were tested in two in vitro assays, RBP4 binding (SPA) and retinol-dependent RBP4-TTR interaction (HTRF) (Table 1).

serum RBP4 [1] = target: T1, serum RBP4 (Mus musculus (Mouse), UniProt Q00724); test: Serum RBP4 in Abca4−/− mice after 8-week dosing in chow; type: in vivo; details: 35 mg/kg daily oral in chow, 8 weeks
Protocol: Effect of 7a on accumulation of N-retinylidene-N-retinylethanolamine (A2E) in Eyes of the Abca4^−/− Mice
Animal protocols were approved by the Institutional Animal Care and Use Committee of Columbia University and complied with guidelines set forth by The Association for Research in Vision and Ophthalmology. […] Abca4^−/− (knockout) and C57BL/6J (wild-type control) mice were raised under 12 h on-off cyclic lighting with an in-cage illuminance of 30-50 lux. For long-term oral dosing 7a was formulated into Purina 5035 rodent chow at Research Diets, Inc. (New Brunswick, NJ) to ensure consistent 35 mg/kg daily oral dosing. Animals were administered the AKR-XI-85-containing chow for 8 weeks. Blood samples were collected at baseline and at the end of the dosing period for serum RBP4 measurements. Whole blood was drawn into a centrifuge tube and was let clot at room temperature for 30 min followed by centrifugation at 2,000×g for 15 minutes at +4° C. to collect serum. Serum RBP4 was measured using the RBP4 (mouse/rat) dual ELISA kit (AdipoGen) following the manufacturer's instructions.
To assess pre-clinical efficacy of 7a in the mouse Abca4^−/− model, the compound was formulated into a standard mouse chow to provide the daily oral dosing of 35 mg/kg. Long-term 8-week dosing of the compound formulated into a chow was conducted in Abca4^−/− mice. […]

CYP2C9 = CYP2C9 (Homo sapiens (Human), UniProt P11712); test: CYP inhibition, fluorescent, CYP2C9; type: in vitro ADME
Protocol: (§1) The compounds listed below were tested in various metabolic stability and CYP inhibition assays.

CYP2D6 = CYP2D6 (Homo sapiens (Human), UniProt P10635); test: CYP inhibition, fluorescent, CYP2D6; type: in vitro ADME
Protocol: as §1

CYP3A4 = CYP3A4 (Homo sapiens (Human), UniProt P08684); test: CYP inhibition, fluorescent, CYP3A4; type: in vitro ADME
Protocol: as §1

serum RBP4 [2] = target: T1, serum RBP4; test: Serum RBP4 reduction in Balb/c mice after a single oral administration; type: in vivo
Protocol: Pharmacodynamic Studies of 7a and 7p in Balb/c Mice Following a Single Oral Administration
Animal protocols were approved by the Institutional Animal Care and Use Committee of Columbia University and complied with guidelines set forth by The Association for Research in Vision and Ophthalmology. Compounds were prepared as a suspension in 0.9% NaCl, 2% Tween 80 for oral administration. Compounds were administered to Balb/c mice in a volume of 100 μL through oral gavage. The doses used were 15 mg/kg, 25 mg/kg and 35 mg/kg for 7a while two doses, 25 mg/kg and 35 mg/kg, were tested for DENG-31(FFB-0000082). Blood samples were collected at pre-dose and 1 hr, 2 hr, 4 hr, 6 hr, 8 hr, and 24 hr timepoints. Whole blood was drawn into a centrifuge tube and was let clot at room temperature for 30 min followed by centrifugation at 2,000×g for 15 minutes at +4° C. to collect serum. Serum RBP4 was measured using the RBP4 (mouse/rat) dual ELISA kit (AdipoGen) following the manufacturer's instructions.
In order to attain this objective, the effect of oral compound administration was studied in mice. Three doses of compound 7a and two doses of 7p were tested in Balb/c mice assay for reduction of serum RBP4.

[3] = Metabolic stability in liver microsomes (HLM); type: in vitro ADME, human
Protocol: as §1

PPARγ = PPARγ (Homo sapiens (Human), UniProt P37231); test: PPARγ agonist assay (HTRF, PPARγ-NCOR interaction); type: biochemical; details: read-out: PPAR γ assay (HTRF) for agonists of this nuclear receptor - IC50
Source text: Significant safety issues are associated with the clinical use of PPARγ agonists (increased risk of death, myocardial infarction, stroke, congestive heart failure, hepatotoxicity, peripheral edema, weight gain and carcinogenicity^1-4). We wanted to characterize the compounds we identified in a pilot screen as potential PPARγ agonists. The PPARγ assay is based on agonist-sensitive interaction of the GST-tagged ligand-binding domain (LRD) of the nuclear receptor PPARγ with the biotinylated corepressor NCOR peptide (FIG. 8).
Assay reactions are performed in a final volume of 16 ul.
In well of the 384-well assay plate, mix 6 ul of PPARγ solution, 4 ul of NCOR2 solution and 4 μl of Rosi solution. Test compounds diluted from DMSO stocks to 4× assay concentration in 1×HTRF, 100 mM KF buffer may be dispensed to well instead of Rosi. Negative control wells contained DMSO solvent alone; positive control well contained […]. […] Two μl of detection mix was added per well. […] The plate was incubated for 16 hrs at 4° C.
HTRF signal was measured in the SpectraMax M5e Multimode Plate Reader (Molecular Device). Fluorescence was excited at 337 nm. […] The signal was expressed as the ratio of fluorescence intensity: Flu668/Flu620×10,000. […]

CYP2C19 = CYP2C19 (Homo sapiens (Human), UniProt P33261); test: CYP inhibition, fluorescent, CYP2C19; type: in vitro ADME
Protocol: as §1

PPARγ, sequence (P37231 204-505): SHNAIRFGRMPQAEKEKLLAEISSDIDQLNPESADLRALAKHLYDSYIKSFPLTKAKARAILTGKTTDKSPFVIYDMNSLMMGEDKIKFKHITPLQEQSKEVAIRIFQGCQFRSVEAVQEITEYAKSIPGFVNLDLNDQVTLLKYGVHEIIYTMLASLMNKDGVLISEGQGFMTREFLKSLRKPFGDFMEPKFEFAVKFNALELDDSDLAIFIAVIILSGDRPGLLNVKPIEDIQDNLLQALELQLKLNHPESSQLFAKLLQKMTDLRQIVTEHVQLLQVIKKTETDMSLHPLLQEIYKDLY
CYP2D6, sequence (P10635 whole entry, species assumed): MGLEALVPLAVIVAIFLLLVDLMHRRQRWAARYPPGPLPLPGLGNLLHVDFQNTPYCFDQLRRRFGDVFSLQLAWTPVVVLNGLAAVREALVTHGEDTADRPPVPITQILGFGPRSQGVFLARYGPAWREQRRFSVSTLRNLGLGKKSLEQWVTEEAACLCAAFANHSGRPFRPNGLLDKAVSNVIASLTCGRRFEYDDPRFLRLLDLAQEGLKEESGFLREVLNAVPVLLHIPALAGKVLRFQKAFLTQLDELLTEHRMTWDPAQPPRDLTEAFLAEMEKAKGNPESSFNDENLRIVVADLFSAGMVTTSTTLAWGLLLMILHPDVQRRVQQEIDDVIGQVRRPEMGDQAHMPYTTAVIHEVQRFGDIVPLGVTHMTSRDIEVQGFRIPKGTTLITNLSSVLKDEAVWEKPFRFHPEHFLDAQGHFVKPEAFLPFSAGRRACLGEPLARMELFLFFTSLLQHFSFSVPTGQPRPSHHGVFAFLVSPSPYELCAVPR
CYP2C9, sequence (P11712 whole entry, species assumed): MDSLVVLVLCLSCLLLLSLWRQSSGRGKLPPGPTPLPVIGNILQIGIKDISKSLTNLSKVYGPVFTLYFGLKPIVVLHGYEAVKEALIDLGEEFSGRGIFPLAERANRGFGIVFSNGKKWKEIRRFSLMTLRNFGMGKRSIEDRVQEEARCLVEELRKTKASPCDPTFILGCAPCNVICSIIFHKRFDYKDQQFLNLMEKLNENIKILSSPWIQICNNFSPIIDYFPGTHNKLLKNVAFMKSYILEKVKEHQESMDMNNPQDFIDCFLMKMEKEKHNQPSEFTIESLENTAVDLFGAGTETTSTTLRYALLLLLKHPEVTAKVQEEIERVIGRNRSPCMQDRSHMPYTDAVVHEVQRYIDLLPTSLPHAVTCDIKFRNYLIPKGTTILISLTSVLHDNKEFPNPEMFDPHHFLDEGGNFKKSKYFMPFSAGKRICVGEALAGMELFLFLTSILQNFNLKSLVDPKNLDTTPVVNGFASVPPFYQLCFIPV
CYP3A4, sequence (P08684 whole entry, species assumed): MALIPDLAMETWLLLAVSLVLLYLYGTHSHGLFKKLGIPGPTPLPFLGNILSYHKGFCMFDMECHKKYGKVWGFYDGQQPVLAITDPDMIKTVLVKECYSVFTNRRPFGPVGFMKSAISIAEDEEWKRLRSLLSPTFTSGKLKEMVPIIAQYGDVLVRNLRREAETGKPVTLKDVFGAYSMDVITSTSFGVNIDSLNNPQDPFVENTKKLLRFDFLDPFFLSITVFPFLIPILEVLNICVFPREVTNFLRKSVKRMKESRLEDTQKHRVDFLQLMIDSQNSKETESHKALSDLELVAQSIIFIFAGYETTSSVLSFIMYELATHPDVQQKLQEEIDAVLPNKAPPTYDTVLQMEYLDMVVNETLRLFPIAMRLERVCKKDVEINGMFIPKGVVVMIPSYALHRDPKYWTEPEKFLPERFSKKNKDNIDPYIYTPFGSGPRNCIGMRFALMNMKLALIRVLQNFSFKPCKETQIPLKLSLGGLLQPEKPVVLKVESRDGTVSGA
CYP2C19, sequence (P33261 whole entry, species assumed): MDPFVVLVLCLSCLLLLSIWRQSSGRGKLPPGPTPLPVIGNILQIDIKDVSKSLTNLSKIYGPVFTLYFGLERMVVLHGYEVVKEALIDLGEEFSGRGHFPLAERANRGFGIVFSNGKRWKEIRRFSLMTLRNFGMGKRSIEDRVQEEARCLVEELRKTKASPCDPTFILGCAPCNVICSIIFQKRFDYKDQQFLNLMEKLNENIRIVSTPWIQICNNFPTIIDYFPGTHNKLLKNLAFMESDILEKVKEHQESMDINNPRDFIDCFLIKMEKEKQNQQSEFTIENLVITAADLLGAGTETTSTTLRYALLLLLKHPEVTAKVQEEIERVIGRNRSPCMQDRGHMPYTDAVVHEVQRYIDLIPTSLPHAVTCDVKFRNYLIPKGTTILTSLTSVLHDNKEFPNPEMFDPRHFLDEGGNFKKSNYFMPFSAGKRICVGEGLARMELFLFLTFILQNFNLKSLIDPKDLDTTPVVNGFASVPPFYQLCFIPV

IC50 (human RBP4): 0.023 µM
serum RBP4 reduction at end of 8-week treatment (serum RBP4 [1]): Approximately 70%
IC50 (CYP2C9): > 100 µM
IC50 (CYP2D6): > 100 µM
IC50 (CYP3A4): > 100 µM
maximum serum RBP4 reduction (serum RBP4 [2]; single 15 mg/kg PO, at 4 hr): 83%
maximum serum RBP4 reduction (serum RBP4 [2]; single 25 mg/kg PO, at 6 hr timepoint): 86%
maximum serum RBP4 reduction (serum RBP4 [2]; single 35 mg/kg PO, at 8 hr timepoint): 89%
Metabolic stability in liver microsomes: % Remaining at 30 min, HLM [3]: 85%
IC50 (PPARγ): > 100 µM
IC50 (CYP2C19): > 20 µM
SMILES: O=C(c1nc2ncccn2n1)N1C[C@H]2C[C@@H](c3ccccc3C(F)(F)F)C[C@H]2C1 [Compound 7a]
